Laboratory results taken from ChEMBL document CHEMBL1145428, “A novel arginine methyltransferase inhibitor with cellular activity” (Bioorg Med Chem Lett, 2007).
Activity calls are given as the source filed them. No cut-off for these calls is given here.

Assays:
[1] = molecular target: RmtA (Emericella nidulans, UniProt Q5VLE3); test: Inhibition of Aspergillus nidulans RmtA by TRF assay
[2] = molecular target: Protein arginine N-methyltransferase 1 (Homo sapiens) (UniProt Q99873); test: Inhibition of human PRMT1 at 40 uM by TRF assay; parameters: scale not given: the % may be the effect or the level left
[3] = molecular target: RmtA (Emericella nidulans) (UniProt Q5VLE3); test: Inhibition of Aspergillus nidulans RmtA at 40 uM by TRF assay; parameters: scale not given: the % may be the effect or the level left
[4] = molecular target: T1, Histone-lysine N-methyltransferase SETD7 (Homo sapiens) (UniProt Q8WTS6); test: Inhibition of lysine methyltransferase SET7/9 at 50 uM
T1 sequence (whole entry): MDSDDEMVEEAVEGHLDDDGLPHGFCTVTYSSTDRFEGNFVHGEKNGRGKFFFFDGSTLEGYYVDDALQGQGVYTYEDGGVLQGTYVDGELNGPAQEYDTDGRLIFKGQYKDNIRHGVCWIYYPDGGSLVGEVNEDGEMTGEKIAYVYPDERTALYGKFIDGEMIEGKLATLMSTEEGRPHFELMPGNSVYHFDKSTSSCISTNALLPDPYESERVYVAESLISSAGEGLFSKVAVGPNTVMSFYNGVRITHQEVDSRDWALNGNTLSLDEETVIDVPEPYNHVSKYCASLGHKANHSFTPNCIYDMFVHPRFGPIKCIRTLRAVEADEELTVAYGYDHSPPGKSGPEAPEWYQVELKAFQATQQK

Chain of Protein arginine N-methyltransferase 1 (Homo sapiens) (Q99873 whole entry, looked up): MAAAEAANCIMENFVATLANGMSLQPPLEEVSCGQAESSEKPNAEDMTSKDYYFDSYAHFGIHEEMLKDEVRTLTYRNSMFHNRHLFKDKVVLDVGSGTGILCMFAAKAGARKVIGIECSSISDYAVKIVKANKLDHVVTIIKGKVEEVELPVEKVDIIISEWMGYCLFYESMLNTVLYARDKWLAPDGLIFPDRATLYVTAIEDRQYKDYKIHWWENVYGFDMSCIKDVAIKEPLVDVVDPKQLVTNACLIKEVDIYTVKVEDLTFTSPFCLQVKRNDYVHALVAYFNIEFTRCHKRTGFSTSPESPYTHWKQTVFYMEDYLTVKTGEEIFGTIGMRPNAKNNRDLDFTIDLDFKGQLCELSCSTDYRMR
Chain of RmtA (Emericella nidulans) (Q5VLE3 as listed by the source): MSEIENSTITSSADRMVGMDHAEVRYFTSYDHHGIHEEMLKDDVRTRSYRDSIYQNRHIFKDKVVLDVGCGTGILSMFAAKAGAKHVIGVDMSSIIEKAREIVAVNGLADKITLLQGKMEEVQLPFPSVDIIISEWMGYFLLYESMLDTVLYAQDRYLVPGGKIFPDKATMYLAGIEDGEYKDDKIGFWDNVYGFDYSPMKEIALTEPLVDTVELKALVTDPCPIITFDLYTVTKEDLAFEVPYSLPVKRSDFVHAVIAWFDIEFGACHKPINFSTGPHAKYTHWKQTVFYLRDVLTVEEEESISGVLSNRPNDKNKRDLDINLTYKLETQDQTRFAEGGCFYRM
Chain of RmtA (Q5VLE3 whole entry): as the sequence (Q5VLE3 as listed by the source) above

Row | IC50 [1] [µM] | Activity [2] [%] | Activity [3] [%] | Activity [4] | Compound
1 | 46.8 | < 20 |  |  | CC(S)C(=O)NCCCN (stereo not given)
2 |  | < 20 | < 20 |  | CC(SC1c2ccccc2Sc2ccccc21)C(=O)N1CCCC1 (stereo not given)
3 | 46.2 |  |  | inactive | CC(SC1c2ccccc2Oc2ccccc21)C(=O)NCCNC(=O)C(C)SC1c2ccccc2Oc2ccccc21 (stereo not given)

The next lines start with the compound.

Row | Compound | IC50 [1] [µM] | Activity [2] [%] | Activity [3] [%] | Activity [4]
4 | CC(SC1c2ccccc2Oc2ccccc21)C(=O)NCCOCCOCCNC(=O)C(C)SC1c2ccccc2Oc2ccccc21 (stereo not given) |  | < 20 | < 20 | 
5 | O=C(CSC1c2ccccc2Oc2ccccc21)N1CCCCC1 |  | < 20 | < 20 | 
